# Measurements from US12410211B2, “V1A receptor partial agonist and method of use” (PharmaIN Corporation, priority 2020, dated 2025).
# Where a SMILES comes first, the peptide text is derived from it. Bridges are numbered along the chain shown (N, C = ends).
# What was measured:
# [1] = Telemetric evaluation of portal vein pressure in rats with bile duct ligation (Example 9); type: in vivo, Sprague Dawley rats; settings: BDL rats n = 4, 41 μg/kg intravenous bolus
# Description: For this study, animals (Sprague Dawley rats (240-300 g at surgery from Charles River Laboratory) were maintained at room temperatures (20 to 22° C.) with 14-hour light, 10-hour dark cycle when not performing study procedures. The mean portal vein pressure (MPVP) reduction efficacy of a peptide of Formula ([…] [SEQ ID NO. 13]; Mpa and C are disulfide bonded; represented as TA-1) was compared to terlipressin in telemetered male with Bile Duct Ligation (BDL) and Sham surgery. On Study Day 1, rats received bile duct ligation surgery and telemetry implantation. The BDL group (n=4) had two stands of silk suture tightened and tied to occlude the bile duct; the sham group (n=3) had sutures loosely tied around the bile duct so that no occlusion occurred. After recovery from surgery, all rats had their portal vein pressure monitored continuously via telemetry until Day 22. […] Terlipressin was administered through intravenous bolus into a lateral tail vein on Day 20 and 21. All animals were dosed under manual restraint. Systolic portal vein pressure and diastolic portal vein pressure were measured to calculate the Mean Portal Vein Pressure ([…] was analyzed by averaging 5 minute intervals for the first 4 hours after dose and thereafter averaging 1 hour intervals after dose until 24 hours. […] Telemetric evaluation of […] [SEQ ID NO. 13] and Terlipressin on portal vein pressure in rats with bile duct ligation. The animal room temperatures were set to maintain 20 to 22° C. A 14-hour light, 10-hour dark cycle was implemented unless interrupted by study procedures. Efficacy was assessed by evaluating mean portal vein pressure (MPVP) at different concentrations of Formula 1 and Terlipressin in telemetered male Sprague Dawley rats (240-300 g at surgery from Charles River Laboratory) with Bile Duct Ligation (BDL) and Sham surgery. On Study Day 1, rats received bile duct ligation surgery and telemetry implantation. The BDL group (n=4) had two stands of silk suture tightened and tied to occlude the bile duct; the sham group (n=3) had sutures loosely tied around the bile duct so that no occlusion occurred. After recovery from surgery, all rats had their portal vein pressure monitored continuously via telemetry until Day 22. […] Formula 1 was administered at different concentrations subcutaneously on Day 15 to 19, and Day 23; Terlipressin was administered through intravenous bolus into a lateral tail vein on Day 20 and 21. All animals were dosed under manual restraint. Systolic portal vein pressure and diastolic portal vein pressure were measured to calculate the Mean Portal Vein Pressure ([…] was analyzed by averaging 5 minute intervals for the first 4 hours after dose and thereafter averaging 1 hour intervals after dose until 24 hours.
# [2] = molecular target: V2 (Homo sapiens, UniProt P30518); settings: cited from earlier work
# [3] = Therapeutic index (NOAEL/NOEL): paleness, lethargy, ataxia observation in Sprague-Dawley rats (Example 7); type: in vivo
# Procedure, shortened: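 Male Sprague-Dawley rats, 8–10 weeks, under isoflurane (n=3 or 6), dosed IV or SC with test articles. Paleness judged by ear colour beside untreated controls; lethargy and ataxia scored by observation. Index expressed as NOAEL/NOEL ratio.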
# [4] = Acute diuretic activity of Terlipressin, Tolvaptan and combinations in Wistar rats (Example 5); type: in vivo
# Description: The animals were then treated with Terlipressin (Bachem, Torrance CA), Tolvaptan (Fisher Scientific, Waltham, MA) and combination of the two compounds at various concentrations administered subcutaneously (n=4). Test articles were Terlipressin 0.05 mg/Kg and 0.15 mg/Kg, Tolvaptan 0.3 mg/Kg, and 1.0 mg/Kg, Terlipressin 0.05 mg/Kg+Tolvaptan 0.3 mg/Kg, Terlipressin 0.05 mg/Kg+Tolvaptan 1.0 mg/Kg, Terlipressin 0.15 mg/Kg+Tolvaptan 0.3 mg/Kg, and Terlipressin 0.15 mg/Kg+1.0 mg/Kg. Furosemide (Fisher Scientific, Waltham, MA) was used as positive control and dosed at 20 mg/kg via oral gavage. Control dosed vehicle group (9% tween 80; Fisher Scientific, Waltham MA) administered subcutaneously was included and the resulting data was subtracted from individual test article data. After the dose, animals were placed in the metabolic cage (Tecniplast; Province of Varese, Italy) and urine was collected and measured at 2, 4 and 8 hours after the dosing of test articles. Urine volumes were divided by the body weight (pre-dose) times 100 to express in ml/100 g body weight.
# Chain of V2 (P30518 whole entry): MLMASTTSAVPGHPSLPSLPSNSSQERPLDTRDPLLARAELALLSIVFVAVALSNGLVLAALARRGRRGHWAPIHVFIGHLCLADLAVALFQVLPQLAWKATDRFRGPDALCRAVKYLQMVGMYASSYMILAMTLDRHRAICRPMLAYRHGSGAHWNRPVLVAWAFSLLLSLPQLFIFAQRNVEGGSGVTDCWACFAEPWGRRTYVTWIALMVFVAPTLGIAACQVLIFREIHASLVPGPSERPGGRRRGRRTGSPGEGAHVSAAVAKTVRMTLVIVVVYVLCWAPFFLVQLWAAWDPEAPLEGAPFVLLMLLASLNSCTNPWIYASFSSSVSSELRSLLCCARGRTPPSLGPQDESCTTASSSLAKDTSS
smiles,measurement,setting,value
"NCCCC[C@H](NC(=O)[C@@H]1CCCN1C(=O)[C@@H]1CSSC[C@H](NC(=O)CNC(=O)CNC(=O)CN)C(=O)N[C@@H](Cc2ccc(O)cc2)C(=O)N[C@@H](Cc2ccccc2)C(=O)N[C@@H](CCC(N)=O)C(=O)N[C@@H](CC(N)=O)C(=O)N1)C(=O)NCC(N)=O [Terlipressin, reference compound] (H-GGGCYFQNCPKG-NH2; disulfide 4-9)",Percent decrease (%) in Mean Portal Vein Pressure (MPVP) from BDL baseline prior to treatment,[1]; Time 1 hr,−23%
same,Percent decrease (%) in Mean Portal Vein Pressure (MPVP) from BDL baseline prior to treatment,[1]; Time 4 hr,11.3%
same,Percent decrease (%) in Mean Portal Vein Pressure (MPVP) from BDL baseline prior to treatment,[1]; Time 7 hr,10.8%
same,Percent decrease (%) in Mean Portal Vein Pressure (MPVP) from BDL baseline prior to treatment,[1]; Time 20 hr,7.3%
same,V2 or anti-diuretic activity,[2],3%
same,"Paleness (Duration, hrs; SD)","[3]; I.V., at the Marked adverse effect dose",(3.56 ± 0.06) hrs
same,"Paleness (Duration, hrs; SD)","[3]; I.V., at the Mild adverse effect dose",(2.82 ± 0.03) hrs
same,"Paleness (Duration, hrs; SD)","[3]; I.V., at the NOAEL dose",(1.3 ± 0.05) hrs
same,"Paleness (Duration, hrs; SD)","[3]; I.V., at the NOEL dose",None observed
same,Highest dose with no-observed effect level or paleness (NOEL),"[3]; I.V., rat",0.005 mg/kg
same,NOAEL at 24 h,"[3]; male, Sprague-Dawley, in vivo, iv, I.V., rat, read-out: Highest dose with no-observed adverse effect level without lethargy (NOAEL)",0.05 mg/kg
same,Marked adverse effect (Lowest dose first showed Ataxia),"[3]; rat, in vivo, iv",1.5 mg/kg
same,Mild adverse effect (Lowest dose first showed Lethargy),"[3]; rat, in vivo, iv",0.15 mg/kg
same,Average mL of Urine per 100 gram body weight 8 hours cumulative (n = 4) minus Vehicle group (Tween 80); (SEM),[4]; Terlipressin 0.05 mg/Kg subcutaneous,0.70 (0.17) mL per 100 gram body weight
same,Average mL of Urine per 100 gram body weight 8 hours cumulative (n = 4) minus Vehicle group (Tween 80); (SEM),[4]; Terlipressin 0.15 mg/Kg subcutaneous,1.32 (0.23) mL per 100 gram body weight
